Test results as given in patent publication US7989459B2, “Purinones and 1H-imidazopyridinones as PKC-theta inhibitors” (Pharmacopeia, LLC, priority 2006, dated 2011).

How the values were obtained:
SGK1 = biological target: T1, SGK1 (Homo sapiens, UniProt O00141); test: IC50 for kinase SGK (selectivity); assay type: biochemical
T1 sequence (O00141 1-431): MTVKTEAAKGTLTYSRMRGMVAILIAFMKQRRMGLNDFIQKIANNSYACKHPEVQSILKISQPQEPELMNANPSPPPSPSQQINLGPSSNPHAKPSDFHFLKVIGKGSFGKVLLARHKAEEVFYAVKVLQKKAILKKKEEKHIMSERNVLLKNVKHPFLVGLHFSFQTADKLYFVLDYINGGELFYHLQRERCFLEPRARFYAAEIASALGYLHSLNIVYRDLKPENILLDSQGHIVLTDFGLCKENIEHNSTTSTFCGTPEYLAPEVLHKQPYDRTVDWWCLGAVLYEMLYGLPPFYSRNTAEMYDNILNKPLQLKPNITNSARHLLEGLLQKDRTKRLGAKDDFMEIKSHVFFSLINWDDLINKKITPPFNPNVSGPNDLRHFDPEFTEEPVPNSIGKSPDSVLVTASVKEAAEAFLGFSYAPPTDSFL
Procedure: Entries identified with “1” had values above 15 nM; entries identified with “2” had values above 100 nM; entries identified with “3” had values above 1 μM; entries identified with “4” had values above 10 μM. In Table 2, “nd” stands for “not determined.”

PKC delta = PKC delta (Homo sapiens, UniProt Q05655); test: Ki Pan Vera (PV) PKC delta; assay type: biochemical
Sequence of PKC delta (Q05655 whole entry): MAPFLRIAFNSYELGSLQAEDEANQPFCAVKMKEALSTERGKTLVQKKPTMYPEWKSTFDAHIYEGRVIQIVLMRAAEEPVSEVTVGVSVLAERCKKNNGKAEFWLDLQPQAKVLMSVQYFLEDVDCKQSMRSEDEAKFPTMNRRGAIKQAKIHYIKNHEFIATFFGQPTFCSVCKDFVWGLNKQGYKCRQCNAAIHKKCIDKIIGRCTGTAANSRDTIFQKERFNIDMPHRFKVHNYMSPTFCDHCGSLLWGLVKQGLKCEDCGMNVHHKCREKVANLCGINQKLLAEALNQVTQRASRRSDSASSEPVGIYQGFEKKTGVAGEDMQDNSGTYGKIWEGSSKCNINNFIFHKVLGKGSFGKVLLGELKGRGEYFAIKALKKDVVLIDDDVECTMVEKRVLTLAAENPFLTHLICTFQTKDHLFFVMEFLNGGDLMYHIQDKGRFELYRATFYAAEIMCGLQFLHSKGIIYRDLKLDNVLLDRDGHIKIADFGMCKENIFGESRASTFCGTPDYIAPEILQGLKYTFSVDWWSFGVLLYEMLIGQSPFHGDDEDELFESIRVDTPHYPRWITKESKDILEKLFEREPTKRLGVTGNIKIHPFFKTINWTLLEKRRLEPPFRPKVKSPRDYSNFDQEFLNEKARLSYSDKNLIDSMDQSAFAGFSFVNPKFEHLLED

PKC alpha = PKC alpha (Homo sapiens, UniProt P17252); test: Ki Pan Vera (PV) PKC alpha; assay type: biochemical
Procedure: [Worded in the source for another target; this target is reported under the same test.] (§1) For Ki Pan Vera (PV) of PKCθ, entries identified with “A” had values below 100 nM; entries identified with “B” had values below 1 μM.

PKCθ = PKCθ (Homo sapiens, UniProt Q04759); test: Ki Pan Vera (PV) PKCθ; assay type: biochemical
Sequence of PKCθ (Q04759 whole entry): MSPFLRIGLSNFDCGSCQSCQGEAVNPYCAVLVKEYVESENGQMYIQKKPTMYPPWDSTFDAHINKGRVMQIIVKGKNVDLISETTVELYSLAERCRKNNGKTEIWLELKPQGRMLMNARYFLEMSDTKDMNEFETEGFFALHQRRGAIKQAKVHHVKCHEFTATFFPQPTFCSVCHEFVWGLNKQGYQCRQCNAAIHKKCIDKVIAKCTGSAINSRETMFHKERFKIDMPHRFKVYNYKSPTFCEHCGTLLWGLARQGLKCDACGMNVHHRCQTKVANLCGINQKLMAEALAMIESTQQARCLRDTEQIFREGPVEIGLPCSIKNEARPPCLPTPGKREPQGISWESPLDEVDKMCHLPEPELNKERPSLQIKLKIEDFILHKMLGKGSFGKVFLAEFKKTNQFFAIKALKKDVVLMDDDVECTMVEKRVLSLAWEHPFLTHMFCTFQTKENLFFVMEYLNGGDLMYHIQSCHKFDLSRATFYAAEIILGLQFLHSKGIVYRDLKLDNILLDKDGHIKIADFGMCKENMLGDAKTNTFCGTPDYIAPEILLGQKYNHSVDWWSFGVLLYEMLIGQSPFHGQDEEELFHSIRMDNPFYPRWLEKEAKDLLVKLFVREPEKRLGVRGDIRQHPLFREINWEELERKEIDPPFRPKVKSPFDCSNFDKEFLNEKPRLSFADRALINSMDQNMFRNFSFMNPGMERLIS
Procedure: as §1

[1] = test system: anti-CD3 induced interleukin-2 (IL-2) production; test: anti-CD3 induced IL-2 production in mice; assay type: in vivo
Procedure: The compounds of the invention were also tested in vivo.

SMILES	IC50-SGK1 (nM) (SGK1)	Ki (PKC delta) [µM]	Ki (PKC alpha) [µM]	Ki (PKCθ) [µM]	IC50 (SGK1) [µM]	% inhibition of IL-2 production ([1]; subcutaneous dose 30 mg/kg) [%]	% inhibition of IL-2 production ([1]; subcutaneous dose 1 mg/kg) [%]
NCCCNc1ncc2[nH]c(=O)n(Cc3ccccc3OC(F)(F)F)c2n1 [Compound 139]	Inactive	> 1	> 10	< 1			
O=c1[nH]c2cnc(NCC3CCNCC3)nc2n1Cc1ccccc1C(F)(F)F [Compound 145]	Inactive	> 1	> 10	< 1			
O=c1[nH]c2cnc(NCC3CCNCC3)nc2n1Cc1cccc(Cl)c1 [Compound 215]		> 1	> 10	< 1			
COc1ccccc1Cn1c(=O)[nH]c2cnc(NCCCN)nc21 [Compound 218]		> 1	> 10	< 1			
NCCCNc1ncc2[nH]c(=O)n(Cc3cc(Cl)ccc3Cl)c2n1 [Compound 115]		> 0.1	> 1	< 0.1		40	
C=CC[C@@H]1/C=C(\C)C[C@H](C)C[C@H](OC)[C@H]2O[C@@](O)(C(=O)C(=O)N3CCCC[C@H]3C(=O)O[C@H](/C(C)=C/[C@@H]3CC[C@@H](O)[C@H](OC)C3)[C@H](C)[C@@H](O)CC1=O)[C@H](C)C[C@@H]2OC [FK506, reference compound]							87
NCCCNc1ncc2[nH]c(=O)n(Cc3cc(F)ccc3C(F)(F)F)c2n1 [Compound 133]		> 0.1	> 10	< 0.1	> 1		
O=c1[nH]c2cnc(NCC3CCNCC3)nc2n1Cc1ccccc1Br [Compound 201]		> 0.1	> 1	< 1	> 10		
NCCCNc1ncc2[nH]c(=O)n(Cc3ccccc3C(F)(F)F)c2n1 [Compound 136]	Inactive	> 0.1	> 10	< 0.1			
O=c1[nH]c2cnc(NC[C@@H]3CCCNC3)nc2n1Cc1ccccc1C(F)(F)F [Compound 144]		> 0.1	> 10	< 1	> 10		
O=c1[nH]c2cnc(NCC3CCNC3)nc2n1[C@@H]1CCc2ccccc21 (some centres unmarked) [Compound 231]		> 1	> 10	< 1			
O=c1[nH]c2cnc(NC[C@@H]3CCNC3)nc2n1Cc1ccccc1Cl [Compound 128]		> 0.1	> 10	< 1	> 10		
O=c1[nH]c2cnc(NC[C@H]3CCCNC3)nc2n1Cc1ccccc1Br [Compound 141]	Inactive	> 0.1	> 10	< 1			
Cc1ccccc1Cn1c(=O)[nH]c2cnc(NCCCN)nc21 [Compound 216]		> 1	> 10	< 1			
NCCCNc1ccc2[nH]c(=O)n(Cc3c(Cl)cccc3Cl)c2n1 [Compound 149]	Inactive	> 0.1	> 10	< 0.1			
NCCCNc1ncc2[nH]c(=O)n(Cc3ccccc3F)c2n1 [Compound 208]	Inactive	> 0.1	> 10	< 1			
O=c1[nH]c2cnc(NCC3CCNC3)nc2n1Cc1ccccc1F (centres unmarked) [Compound 204]		> 0.1	> 10	< 1	> 10		
O=c1[nH]c2cnc(NCC3CCNC3)nc2n1Cc1ccccc1OC(F)(F)F (centres unmarked) [Compound 112]	Inactive	> 0.1	> 1	< 0.1			
O=c1[nH]c2cnc(NC[C@@H]3CCNC3)nc2n1Cc1ccccc1C(F)(F)F [Compound 116]		> 0.1	> 1	< 0.1	> 10		
O=c1[nH]c2cnc(NCC3CCNCC3)nc2n1-c1cccc(Cl)c1 [Compound 224]		> 1	> 1	< 1			
NCCCNc1ncc2[nH]c(=O)n(Cc3cccc(Cl)c3)c2n1 [Compound 214]		> 1	> 10	< 1			
O=c1[nH]c2cnc(NC[C@H]3CCCNC3)nc2n1Cc1c(Cl)cccc1Cl [Compound 140]		> 0.1	> 10	< 1	> 10		
O=c1[nH]c2cnc(NCC3CCNCC3)nc2n1Cc1c(Cl)cccc1Cl [Compound 205]	Inactive	> 0.1	> 10	< 1			

More lines, main results first:

IC50-SGK1 (nM) (SGK1)	Ki (PKC delta) [µM]	Ki (PKC alpha) [µM]	Ki (PKCθ) [µM]	IC50 (SGK1) [µM]	SMILES	% inhibition of IL-2 production ([1]; subcutaneous dose 30 mg/kg) [%]	% inhibition of IL-2 production ([1]; subcutaneous dose 1 mg/kg) [%]
Inactive	> 0.1	> 10	< 0.1		NCCCNc1ncc2[nH]c(=O)n(Cc3c(F)cccc3Cl)c2n1 [Compound 118]		
Inactive	> 0.1	> 10	< 0.1		NCCCNc1ncc2[nH]c(=O)n(Cc3cccc(Cl)c3Cl)c2n1 [Compound 117]		
	> 0.015	> 1	< 0.1	> 10	O=c1[nH]c2ccc(NC[C@@H]3CCNC3)nc2n1Cc1c(Cl)cccc1Cl [Compound 147, (R)-3-(2,6-Dichlorobenzyl)-5-(pyrrolidin-3-ylmethylamino)-1H-imidazo[4,5-b]pyridin-2(3H)-one]		
Inactive	> 0.1	> 10	< 1		O=c1[nH]c2cnc(NCC3CCNCC3)nc2n1Cc1ccccc1Cl [Compound 206]		
	> 0.015	> 1	< 0.1	> 10	O=c1[nH]c2cnc(NCC3CCNC3)nc2n1Cc1ccccc1Br (centres unmarked) [Compound 104]		
	> 0.1	> 10	< 0.1	> 1	NCCCNc1ncc2[nH]c(=O)n(Cc3ccccc3Br)c2n1 [Compound 127]		
	> 0.1	> 10	< 1		O=c1[nH]c2cnc(NCCCn3ccnc3)nc2n1Cc1c(Cl)cccc1C(F)(F)F [Compound 207]		
Inactive	> 0.1	> 10	< 1		NCCCNc1ccc2[nH]c(=O)n(Cc3ccccc3Cl)c2n1 [Compound 241]		
	> 0.1	> 10	< 1	> 10	O=c1[nH]c2cnc(NC[C@H]3CCCNC3)nc2n1Cc1ccccc1C(F)(F)F [Compound 142]		
	> 0.1	> 10	< 0.1	> 10	NCCCNc1ncc2[nH]c(=O)n(Cc3ccccc3Cl)c2n1 [Compound 124]		
Inactive	> 0.1	> 10	< 0.1		NCCCNc1ncc2[nH]c(=O)n(Cc3c(F)cccc3F)c2n1 [Compound 129]		
Inactive	> 0.1	> 10	< 0.1		O=c1[nH]c2cnc(NCC3CCNC3)nc2n1Cc1c(F)cccc1F (centres unmarked) [Compound 119]		
	> 0.015	> 1	< 0.1	> 10	O=c1[nH]c2cnc(NCC3CCNC3)nc2n1Cc1ccccc1Cl (centres unmarked) [Compound 113]		
	> 0.1	> 10	< 0.1	> 10	O=c1[nH]c2cnc(NCC3CCNC3)nc2n1Cc1cccc(Cl)c1Cl (centres unmarked) [Compound 114]		
Inactive	> 0.1	> 1	< 0.1		O=c1[nH]c2cnc(NC[C@H]3CCNC3)nc2n1Cc1ccccc1C(F)(F)F [Compound 122]		
	> 0.1	> 10	< 0.1		O=c1[nH]c2ccc(NC[C@H]3CCNC3)nc2n1Cc1c(Cl)cccc1Cl [Compound 148]		
	> 0.1	> 10	< 0.1	> 10	O=c1[nH]c2cnc(NC[C@@H]3CCCNC3)nc2n1Cc1c(Cl)cccc1Cl [Compound 138]		
Inactive	> 0.1	> 10	< 1		O=c1[nH]c2cnc(NCC3CCCNC3)nc2n1Cc1ccccc1Cl (centres unmarked) [Compound 203]		
	> 0.015	> 1	< 0.1	> 10	O=c1[nH]c2cnc(NCC3CCNC3)nc2n1Cc1c(F)cccc1Cl (centres unmarked) [Compound 106]		
	> 0.015	> 1	< 0.1	> 1	O=c1[nH]c2cnc(NC[C@H]3CCNC3)nc2n1Cc1ccccc1Cl [Compound 103]		
	> 0.015	> 1	< 0.1	> 10	O=c1[nH]c2cnc(NCC3CCNC3)nc2n1Cc1c(Cl)cccc1Cl (centres unmarked) [Compound 108]		
	> 0.015	> 1	< 0.1		O=c1[nH]c2cnc(NC[C@@H]3CCNC3)nc2n1Cc1c(Cl)cccc1Cl [Compound 101]	39	
	> 0.015	> 1	< 0.1	> 1	O=c1[nH]c2cnc(NCC3CCNC3)nc2n1Cc1cc(F)ccc1C(F)(F)F (centres unmarked) [Compound 105]		
	> 0.015	> 1	< 0.1		O=c1[nH]c2cnc(NCC3CCNC3)nc2n1Cc1ccccc1C(F)(F)F (centres unmarked) [Compound 109]		
